Measurements: ChEMBL document CHEMBL1144455, “A small molecule-kinase interaction map for clinical kinase inhibitors” (Nat Biotechnol, 2005)

Columns and labels:
[1] = molecular target: T1, Ephrin type-B receptor 4 (Homo sapiens, UniProt P54760)
T1 sequence (P54760 whole entry): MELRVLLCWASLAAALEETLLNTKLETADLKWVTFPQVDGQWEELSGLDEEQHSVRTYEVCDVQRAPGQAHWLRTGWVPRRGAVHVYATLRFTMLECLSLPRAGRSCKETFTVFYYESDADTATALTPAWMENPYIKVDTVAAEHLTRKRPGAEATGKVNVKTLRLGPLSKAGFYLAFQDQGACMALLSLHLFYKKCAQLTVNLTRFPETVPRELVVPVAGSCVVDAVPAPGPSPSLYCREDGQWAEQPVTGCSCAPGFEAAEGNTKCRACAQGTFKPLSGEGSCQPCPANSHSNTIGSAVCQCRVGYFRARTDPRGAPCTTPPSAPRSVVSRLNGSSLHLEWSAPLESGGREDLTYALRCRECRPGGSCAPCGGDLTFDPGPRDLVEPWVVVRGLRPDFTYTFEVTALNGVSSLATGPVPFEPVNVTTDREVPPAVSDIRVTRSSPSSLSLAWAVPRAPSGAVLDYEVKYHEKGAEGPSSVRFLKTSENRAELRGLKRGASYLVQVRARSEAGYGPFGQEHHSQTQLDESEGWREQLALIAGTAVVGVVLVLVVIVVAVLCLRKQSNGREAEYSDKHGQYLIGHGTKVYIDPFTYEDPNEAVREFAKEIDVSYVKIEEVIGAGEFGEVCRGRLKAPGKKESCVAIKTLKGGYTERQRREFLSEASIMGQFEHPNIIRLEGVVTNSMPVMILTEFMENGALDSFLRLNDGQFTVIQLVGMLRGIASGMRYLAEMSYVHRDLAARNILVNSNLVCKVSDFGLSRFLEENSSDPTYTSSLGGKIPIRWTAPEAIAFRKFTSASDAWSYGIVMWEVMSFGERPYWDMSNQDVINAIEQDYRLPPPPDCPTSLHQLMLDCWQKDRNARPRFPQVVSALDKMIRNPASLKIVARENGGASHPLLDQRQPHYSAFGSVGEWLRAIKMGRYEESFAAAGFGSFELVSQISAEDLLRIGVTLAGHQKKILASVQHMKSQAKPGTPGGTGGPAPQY

[2] = molecular target: Serine/threonine-protein kinase PAK 4 (Homo sapiens, UniProt O96013)
[3] = molecular target: T2, Serine/threonine-protein kinase Nek9 (Homo sapiens, UniProt Q8TD19)
T2 sequence (Q8TD19 whole entry): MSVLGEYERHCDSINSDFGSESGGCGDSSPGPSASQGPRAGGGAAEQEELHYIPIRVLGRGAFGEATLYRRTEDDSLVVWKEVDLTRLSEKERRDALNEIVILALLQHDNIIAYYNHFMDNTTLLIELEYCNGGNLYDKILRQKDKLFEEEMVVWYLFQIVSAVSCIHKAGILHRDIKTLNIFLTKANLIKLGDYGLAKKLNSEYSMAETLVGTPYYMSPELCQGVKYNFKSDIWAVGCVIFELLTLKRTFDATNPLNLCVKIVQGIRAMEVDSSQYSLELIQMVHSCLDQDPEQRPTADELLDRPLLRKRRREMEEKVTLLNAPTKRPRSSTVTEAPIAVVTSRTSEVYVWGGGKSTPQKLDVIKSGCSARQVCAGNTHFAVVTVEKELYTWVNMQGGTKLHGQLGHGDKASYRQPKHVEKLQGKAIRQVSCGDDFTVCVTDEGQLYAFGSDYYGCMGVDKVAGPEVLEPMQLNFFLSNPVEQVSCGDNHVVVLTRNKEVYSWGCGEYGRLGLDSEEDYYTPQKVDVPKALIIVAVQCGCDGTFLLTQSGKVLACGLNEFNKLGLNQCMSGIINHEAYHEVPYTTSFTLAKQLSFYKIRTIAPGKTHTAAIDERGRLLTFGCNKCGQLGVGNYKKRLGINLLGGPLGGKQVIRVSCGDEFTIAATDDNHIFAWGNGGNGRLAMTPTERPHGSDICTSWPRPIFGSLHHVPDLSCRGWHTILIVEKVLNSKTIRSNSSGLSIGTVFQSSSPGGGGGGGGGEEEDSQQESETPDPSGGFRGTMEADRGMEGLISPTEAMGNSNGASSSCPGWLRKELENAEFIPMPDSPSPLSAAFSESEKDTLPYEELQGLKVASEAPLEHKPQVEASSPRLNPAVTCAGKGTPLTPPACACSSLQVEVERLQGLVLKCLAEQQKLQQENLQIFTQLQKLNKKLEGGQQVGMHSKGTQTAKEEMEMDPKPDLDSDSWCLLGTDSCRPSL

Chain of Serine/threonine-protein kinase PAK 4 (O96013 whole entry): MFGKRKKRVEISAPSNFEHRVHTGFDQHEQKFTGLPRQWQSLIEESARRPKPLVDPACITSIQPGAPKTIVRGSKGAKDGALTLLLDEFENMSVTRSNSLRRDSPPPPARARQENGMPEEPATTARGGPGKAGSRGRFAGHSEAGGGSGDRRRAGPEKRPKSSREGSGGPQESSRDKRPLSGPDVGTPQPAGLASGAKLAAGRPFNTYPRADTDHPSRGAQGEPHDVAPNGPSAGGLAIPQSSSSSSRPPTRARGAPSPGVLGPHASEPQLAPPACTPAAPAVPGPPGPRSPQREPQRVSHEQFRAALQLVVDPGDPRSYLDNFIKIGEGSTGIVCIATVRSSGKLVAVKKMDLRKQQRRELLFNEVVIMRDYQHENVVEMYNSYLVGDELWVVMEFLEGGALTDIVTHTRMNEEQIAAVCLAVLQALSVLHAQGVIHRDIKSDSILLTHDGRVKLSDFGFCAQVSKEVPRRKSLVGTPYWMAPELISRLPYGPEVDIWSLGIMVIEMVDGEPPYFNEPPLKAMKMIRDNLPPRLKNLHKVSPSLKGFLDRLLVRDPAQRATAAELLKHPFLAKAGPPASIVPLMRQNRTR

SMILES: CC[C@H](CO)Nc1nc(NCc2ccccc2)c2ncn(C(C)C)c2n1 [SELICICLIB]
- Kd [1]: Not Active
- Kd [2]: Not Active
- Kd [3]: Not Active

SMILES: COc1cc2c(N3CCN(C(=O)Nc4ccc(OC(C)C)cc4)CC3)ncnc2cc1OCCCN1CCCCC1 [TANDUTINIB]
- Kd [1]: Not Active
- Kd [2]: Not Active
- Kd [3]: Not Active

SMILES: Oc1ccc(-c2nc(-c3ccc(F)cc3)c(-c3ccncc3)[nH]2)cc1 [SB-202190]
- Kd [1]: Not Active
- Kd [2]: Not Active
- Kd [3]: Not Active

SMILES: C[S+]([O-])c1ccc(-c2nc(-c3ccc(F)cc3)c(-c3ccncc3)[nH]2)cc1 (stereo not given) [SB-203580]
- Kd [1]: Not Active
- Kd [2]: Not Active
- Kd [3]: Not Active

SMILES: CCOc1cc2ncc(C#N)c(Nc3ccc(F)c(Cl)c3)c2cc1NC(=O)/C=C/CN(C)C [PELITINIB]
- Kd [2]: Not Active
- Kd [3]: Not Active

SMILES: Cc1ccc(NC(=O)c2ccc(CN3CCN(C)CC3)cc2)cc1Nc1nccc(-c2cccnc2)n1 [IMATINIB]
- Kd [1]: Not Active
- Kd [2]: Not Active
- Kd [3]: Not Active

SMILES: O=c1ncn2nc(Sc3ccc(F)cc3F)ccc2c1-c1c(Cl)cccc1Cl [NEFLAMAPIMOD]
- Kd [2]: Not Active
- Kd [3]: Not Active

SMILES: Oc1c2ccccc2c2c3c(cccc13)N=N2 [SP-600125]
- Kd [1]: Not Active
- Kd [2]: Not Active
- Kd [3]: Not Active

SMILES: C#Cc1cccc(Nc2ncnc3cc(OCCOC)c(OCCOC)cc23)c1 [ERLOTINIB]
- Kd [1]: Not Active
- Kd [2]: Not Active
- Kd [3]: Not Active
